Results on 1 molecule are retold here after patent US20240366611A1, “METHODS OF TREATING A DISEASE OR DISORDER” (Ascentage Pharma (Suzhou) Co., Ltd., priority 2021, published 2024).

One assay concerns Hbb-bh1 mRNA. The assay is described as follows: Hbb-bh1 mRNA level in whole blood (qPCR, relative to GAPDH). The format is in vivo, CD-1 mice. The procedure: Female CD-1 mice (8 weeks old) were housed and handled in a temperature-controlled environment with a 12-h light/12-h dark cycle. A total of 25 mice were assigned to 5 groups by randomization based on body weight, followed by 5 days of treatment with vehicle (po, qd), 3 mg/kg Cpd. 73 (po, qd), 10 mg/kg Cpd. 73 (po, qd), 30 mg/kg Cpd. 73 (po, qd), or 90 mg/kg Cpd. 73 (po, qd). The protocols and procedures involving the care and use of animals were approved by the Institutional Animal Care and Use Committee (IACUC) of WuXiAppTec (Shanghai) Co., Ltd. (Shanghai, China).
Mouse Hbb-bh1 gene, the homolog to human HBG1 gene encoding γ hemoglobin, is used as an efficacy biomarker in wide-type CD-1 mice. One hundred and twenty μL whole blood was collected for RNA isolation following the instructions of Trizol LS reagent (Invitrogen, 10296028). The relative expression of Hbb-bh1 mRNA to GAPDH mRNA were quantified by qPCR. The relative expression of Hbb-bh1 mRNA in the whole blood of CD-1 mice increased with increasing dose of Cpd. 73 from 3 mg/kg (qd×5 days) to 90 mg/kg (qd×5 days). The Hbb-bh1 mRNA levels were 82.2%, 114.6% and 178.3% of the vehicle control group when Cpd. […] 73 (p<0.05, vs. vehicle). The increased expression of Hbb-bh1 mRNA may result in increased expression of mouse βh1 hemoglobin.
In general terms: Real-time PCR tracks product formation cycle by cycle.

Assay [1] deals with DSS induced IBD in C57BL/6 mice. Description: DSS induced inflammatory bowel disease (IBD) model. The format is in vivo. Particulars: 90 mg/kg po qd day 0 to day 7. An excerpt:
Female C57BL/6 mice (8 weeks old) were obtained from Beijing Vital River Laboratory Animal Co. Ltd. Animals were housed and handled in a temperature-controlled environment with a 12-h light/12-h dark cycle. A total of 30 mice were assigned to 3 groups by randomization based on body weight.
On Day 0, colitis was induced by administration of 3% DSS (dextran sodium sulfate, molecular weight 36,000-50,000) in drinking water ad libitum for 8 days. 8-week-old mice were divided into 3 groups: Group 2, DSS treatment group (vehicle, po, qd, from day 0 to day 7); Group 3, DSS with 90 mg/kg Cpd. 73 (po, qd, from day 0 to day 7); and the Group 1 (G1) Naive group, the mice were provided drinking water without DSS. The protocols and procedures involving the care and use of animals were approved by the Institutional Animal Care and Use Committee (IACUC) at Wuxi Apptec (Shanghai, China).
At the end of the study, the animals were euthanized, dissected and the entire colon was quickly removed and gently cleared of feces.
At the end of the study (day 8), all the animals were sacrificed by CO2. The colon was Swiss-rolled and fixed with neutralized PFA followed by H&E staining. After that, the pathologists from WuXi clinical pathological analysis platform, who were blinded to animal ID, reviewed the H&E staining and scored. […]

In assay [2] the test system is chronic kidney disease-induced anemia in SD rats. Description: Rat model of chronic kidney disease-induced anemia (adenine). The format is in vivo. Particulars: 5, 15, 45 mg/kg po QD×4 weeks, end of study. The procedure: SPF-grade male SD rats (200±20 g, 8 weeks) were purchased from Zhejiang Vital River Laboratory Animal Technology Co., Ltd. After acclimating for a week, blood samples were collected and analyzed to exclude anormal animals. The normal animals were randomized, 10 animals were assigned into Control group which were left untreated until the end of the study, and the rest animals received 300 mg/kg adenine by oral gavage (QD×6 weeks). […] Then 60 adenine-treated rats with successful model establishment were further randomized into the following six groups: Model group (treated with vehicle), EPO group (50 U/kg), Cpd. 73 5 mg/kg group, Cpd. 73 15 mg/kg group, Cpd. 73 45 mg/kg group and CPD. 73+EPO group (15 mg/kg+50 U/kg). Each group contained 10 animals. Cpd. 73 was administered to rats by oral gavage (QD×4 weeks), while EPO was subcutaneously administered (TIW×4 weeks).
Body weight, mortality and health condition of rats were recorded twice a week. After model establishment, blood samples were take from the orbit and a few parameters were determined including RBC, HGB, HCT, RET, BUN and Creatine. Blood samples were taken once a week during drug treatment and RBC, HGB, HCT, and RET were analyzed.

Molecules are shown by their SMILES.

Consider `CC(C)N1Cc2cc(C(F)(F)F)ncc2-c2cnc(NCc3c(F)ccc4c3CCO4)n3cnc(c23)C1=O` [Cpd. 73, 12-(((5-fluoro-2,3-dihydrobenzofuran-4-yl)methyl)amino)-4-isopropyl-7-(trifluoromethyl)-4,5-dihydro-3H-2,4,8,11,12a-pentaazabenzo[4,5]cycloocta[1,2,3-cd]inden-3-one], for which the “Hbb-bh1 mRNA level, of the vehicle control group” value (shortened to “Hbb-bh1 mRNA level”) with Hbb-bh1 mRNA (3 mg/kg po qd×5 days) is listed as 82.2%. Further, in the assay on Hbb-bh1 mRNA (10 mg/kg po qd×5 days), the “Hbb-bh1 mRNA level” value amounted to 114.6%. In the assay with Hbb-bh1 mRNA (30 mg/kg po qd×5 days), the “Hbb-bh1 mRNA level” value was determined as 178.3%. Further, the “Hbb-bh1 mRNA, fold of increase” value with Hbb-bh1 mRNA (90 mg/kg po qd×5 days, p<0.05 vs vehicle) is 3.04 fold. Further, in assay [1] (day 8, vehicle 10.10±0.18), the “pathological score (H&E, colon)” value is recorded as 8.30±0.54. Further, the “colon density (colon weight/colon length)” value in assay [1] (vehicle 50.88±2.53) worked out at 41.86±2.57. The body weight result in assay [2] (p<0.001 or 0.01 vs Model) is reported as “dose-dependently improved”. In assay [2] (p<0.001 or 0.05 vs Model), the HCT result is listed as “dose-dependently improved”, the HGB entry is listed as “dose-dependently improved”, the RBC entry is on record as “dose-dependently improved” and the RET entry is “dose-dependently improved”.
